Laboratory results published in BindingDB's records for doi:10.1016/j.bmcl.2009.07.032 (Amgen, 2009).

How the values were obtained:
[1] = Antagonist activity against human CXCR3 expressed in human PBMC assessed as inhibition of cell migration in response to ITAC in plasma
[2] = Antagonist activity against human CXCR3 expressed in human PBMC assessed as inhibition of cell migration in response to IP10 in buffer
[3] = Antagonist activity against human CXCR3 expressed in human PBMC assessed as inhibition of cell migration in response to MIG in buffer
[4] = Antagonist activity against human CXCR3 expressed in human PBMC assessed as inhibition of cell migration in response to ITAC in RPMI buffer

Compound | IC50 [1] | other results
CCOc1ccc(-n2c([C@@H](C)N(Cc3cccnc3)C(=O)Cc3cc(C(F)(F)F)cc(C(F)(F)F)c3)nc3ccccc3c2=O)cc1 [(R)-2-(3,5-bis(trifluoromethyl)phenyl)-N-(1-(3-(4-ethoxyphenyl)-4-oxo-3,4-dihydroquinazolin-2-yl)ethyl)-N-(pyridin-3-ylmethyl)acetamide] | 17 nM | 
CCOc1ccc(-n2c([C@@H](C)N(Cc3ccc[n+]([O-])c3)C(=O)Cc3ccc(OC(F)(F)F)cc3)nc3ncccc3c2=O)cc1 [(R)-3-((N-(1-(3-(4-ethoxyphenyl)-4-oxo-3,4-dihydropyrido[2,3-d]pyrimidin-2-yl)ethyl)-2-(4-(trifluoromethoxy)phenyl)acetamido)methyl)pyridine 1-oxide] | 58 nM | 
CCOc1ccc(-n2c([C@@H](C)N(C(=O)Cc3ccc(F)c(C(F)(F)F)c3)C3CCN(C(C)C)CC3)nc3ncccc3c2=O)cc1 [(R)-N-(1-(3-(4-ethoxyphenyl)-4-oxo-3,4-dihydropyrido[2,3-d]pyrimidin-2-yl)ethyl)-2-(4-fluoro-3-(trifluoromethyl)phenyl)-N-(1-isopropylpiperidin-4-yl)acetamide] | 5 nM | 
CCOc1ccc(-n2c([C@@H](C)N(CC3CCN(C)CC3)C(=O)Cc3ccc(F)c(C(F)(F)F)c3)nc3ncccc3c2=O)cc1 [(R)-N-(1-(3-(4-ethoxyphenyl)-4-oxo-3,4-dihydropyrido[2,3-d]pyrimidin-2-yl)ethyl)-2-(4-fluoro-3-(trifluoromethyl)phenyl)-N-((1-methylpiperidin-4-yl)methyl)acetamide] | 20 nM | 
CCOc1ccc(-n2c([C@@H](C)N(Cc3cc(C)no3)C(=O)Cc3ccc(F)c(C(F)(F)F)c3)nc3ncccc3c2=O)cc1 [(R)-N-(1-(3-(4-ethoxyphenyl)-4-oxo-3,4-dihydropyrido[2,3-d]pyrimidin-2-yl)ethyl)-2-(4-fluoro-3-(trifluoromethyl)phenyl)-N-((3-methylisoxazol-5-yl)methyl)acetamide] | 59 nM | 
CCOc1ccc(-n2c([C@@H](C)N(Cc3cccnc3)C(=O)Cc3ccc(F)c(C(F)(F)F)c3)nc3ncccc3c2=O)cc1 [(R)-N-(1-(3-(4-ethoxyphenyl)-4-oxo-3,4-dihydropyrido[2,3-d]pyrimidin-2-yl)ethyl)-2-(4-fluoro-3-(trifluoromethyl)phenyl)-N-(pyridin-3-ylmethyl)acetamide] | 20 nM | 
CCOc1ccc(-n2c([C@@H](C)N(C(=O)Cc3ccc(F)c(C(F)(F)F)c3)C3CCOCC3)nc3ncccc3c2=O)cc1 [(R)-N-(1-(3-(4-ethoxyphenyl)-4-oxo-3,4-dihydropyrido[2,3-d]pyrimidin-2-yl)ethyl)-2-(4-fluoro-3-(trifluoromethyl)phenyl)-N-(tetrahydro-2H-pyran-4-yl)acetamide] | 162 nM | 
CCOc1ccc(-n2c([C@@H](C)N(CCS(=O)(=O)CC)C(=O)Cc3ccc(F)c(C(F)(F)F)c3)nc3ncccc3c2=O)cc1 [(R)-N-(1-(3-(4-ethoxyphenyl)-4-oxo-3,4-dihydropyrido[2,3-d]pyrimidin-2-yl)ethyl)-N-(2-(ethylsulfonyl)ethyl)-2-(4-fluoro-3-(trifluoromethyl)phenyl)acetamide] | 22 nM | 
CCOc1ccc(-n2c([C@@H](C)N(Cc3cccnc3)C(=O)Cc3ccc(F)c(C(F)(F)F)c3)nc3cnccc3c2=O)cc1 [(R)-N-(1-(3-(4-ethoxyphenyl)-4-oxo-3,4-dihydropyrido[3,4-d]pyrimidin-2-yl)ethyl)-2-(4-fluoro-3-(trifluoromethyl)phenyl)-N-(pyridin-3-ylmethyl)acetamide] | 23 nM | 
CCOc1ccc(-n2c([C@@H](C)N(Cc3cccnc3)C(=O)Cn3cnc(C(F)(F)F)c3)nc3ccccc3c2=O)cc1 [(R)-N-(1-(3-(4-ethoxyphenyl)-4-oxo-3,4-dihydroquinazolin-2-yl)ethyl)-N-(pyridin-3-ylmethyl)-2-(4-(trifluoromethyl)-1H-imidazol-1-yl)acetamide] | 450 nM | 
CCOc1ccc(-n2c([C@@H](C)N(C(=O)Cc3ccc(F)c(C(F)(F)F)c3)C3CCN(C(C)=O)CC3)nc3ncccc3c2=O)cc1 [(R)-N-(1-acetylpiperidin-4-yl)-N-(1-(3-(4-ethoxyphenyl)-4-oxo-3,4-dihydropyrido[2,3-d]pyrimidin-2-yl)ethyl)-2-(4-fluoro-3-(trifluoromethyl)phenyl)acetamide] | 131 nM | 
CCS(=O)(=O)CCN(C(=O)Cc1ccc(F)c(C(F)(F)F)c1)[C@H](C)c1nc2ncccc2c(=O)n1-c1ccc(OCC(F)(F)F)cc1 [(R)-N-(2-(ethylsulfonyl)ethyl)-2-(4-fluoro-3-(trifluoromethyl)phenyl)-N-(1-(4-oxo-3-(4-(2,2,2-trifluoroethoxy)phenyl)-3,4-dihydropyrido[2,3-d]pyrimidin-2-yl)ethyl)acetamide] | 15 nM | IC50 [2]: 0.4 nM; IC50 [3]: 0.6 nM; IC50 [4]: 0.8 nM
CCOc1ccc(-n2c([C@@H](C)N(C[C@H]3CCCN3C(C)C)C(=O)Cc3ccc(F)c(C(F)(F)F)c3)nc3ncccc3c2=O)cc1 [N-((R)-1-(3-(4-ethoxyphenyl)-4-oxo-3,4-dihydropyrido[2,3-d]pyrimidin-2-yl)ethyl)-2-(4-fluoro-3-(trifluoromethyl)phenyl)-N-(((R)-1-isopropylpyrrolidin-2-yl)methyl)acetamide] | 10 nM | 
CCOc1ccc(-n2c([C@@H](C)N(C[C@@H]3CCCN3C(C)C)C(=O)Cc3ccc(F)c(C(F)(F)F)c3)nc3ncccc3c2=O)cc1 [N-((R)-1-(3-(4-ethoxyphenyl)-4-oxo-3,4-dihydropyrido[2,3-d]pyrimidin-2-yl)ethyl)-2-(4-fluoro-3-(trifluoromethyl)phenyl)-N-(((S)-1-isopropylpyrrolidin-2-yl)methyl)acetamide] | 80 nM | 
CCOc1ccc(-n2c([C@@H](C)N(C[C@H]3CCCN3)C(=O)Cc3ccc(F)c(C(F)(F)F)c3)nc3ncccc3c2=O)cc1 [N-((R)-1-(3-(4-ethoxyphenyl)-4-oxo-3,4-dihydropyrido[2,3-d]pyrimidin-2-yl)ethyl)-2-(4-fluoro-3-(trifluoromethyl)phenyl)-N-((R)-pyrrolidin-2-ylmethyl)acetamide] | 20 nM | 
